Experimental data taken from patent US4761398A, “Method of inducing birds to molt” (Embrex, Inc., priority 1986, dated 1988).

Key:
[1] = system: single combed White Leghorn hens; format: in vivo
Description: (§1) After the two week pre-molt adjustment period, the hens were randomly assigned to each of eight different groups. These treatment groups were as follows: (1) control, (2) forced molt, (3) chemical molt-injected, (4) vehicle control-injected, (5) chemical molt-microcapsules A, (6) vehicle control-microcapsules A, (7) chemical molt-microcapsules B, and (8) vehicle control-microcapsules B.
(§2) [D-Trp^6 ]LHRH was used as the LHRH receptor ligand for the chemical molt groups. The "chemical molt-injected" group received intramuscular (breast) injections of 25 micrograms/day of [D-Trp^6 ]LHRH for 10 consecutive days beginning on day 14. Alternate pectoral (breast) areas were injected each day. The "chemical molt-microcapsule" groups received a single intramuscular (breast) injection of microencapsulated [D-Trp^6 ]LHRH on day zero. This preparation of microcapsules provided a controlled release of 25 micrograms [D-Trp^6 ]LHRH per day for 15 consecutive days.
On day 14, the microcapsule injected groups received intramuscular injections of lactide/glycolide copolymer microcapsules which had [D-Trp^6 ]LHRH incorporated therein. The ligand-containing microcapsules administered the "Microcapsules A" group were prepared and supplied by Debiopharm (Lausanne, Switzerland). These microcapsules were prepared by a phase-separation process to produce a free-flowing powder of spherical particles consisting of [D-Trp^6 ]LHRH (2% wt/wt) distributed within a polymeric matrix of 53:47(mol %) poly(DL-lactide-co-glycolide) (98% wt/wt) with an inherent viscosity of 0.7 dl/g. The microcapsules were 50 micrometers or less in diameter. […] Photomicrographs of similar microcapsules are presented in T. W. Redding, et al., Proc. Natl. Acad. Sci. U.S.A., 81, 5845 (Sept. 1984).
After the forced molt group achieved a 30% body weight loss, i.e., after 10 days of fasting, six hens from each group were necropsied. The liver, abdominal adipose tissue (fat pad), ovary plus ova and oviduct weights were measured. The remaining forced molt hens received a limited quantity of feed for two days, and were then fed ad libitum. For all groups, body weight and feed consumption were measured weekly. The lighting regime was increased, at weekly intervals, from natural day length to 17 hour light: seven hour dark. For the forced molt and chemical molt groups, when the first egg was produced after the molt, body weights were measured and body weights taken for the 10 selected birds.

[2] = Body weight of hens through the molt and production period; format: in vivo, single combed White Leghorn hens
Description: During the experiment, two birds were assigned to each cage (12"×18"). The hens were maintained in their cages for two weeks prior to the molt. They received a 17 hour light: 7 hour dark photoperiod throughout this phase of the experiment. During this time, the following parameters were measured:(a) body weight (weekly); (b) feed consumption (all hens received a common layer ration, and the feed consumed during this two week period was measured); (C) production records (daily); and (d), total egg weight, egg shell weight, and egg specific gravity (measured on three consecutive days each week). Serum samples were taken once, from 10 randomly selected hens from each treatment group, and saved for future study. After the two week pre-molt adjustment period, the hens were randomly assigned to each of eight different groups. These treatment groups were as follows: (1) control, (2) forced molt, (3) chemical molt-injected, (4) vehicle control-injected, (5) chemical molt-microcapsules A, (6) vehicle control-microcapsules A, (7) chemical molt-microcapsules B, and (8) vehicle control-microcapsules B. The hens then received a seven day pre-molt treatment of a 24 hour light, zero hour dark photoperiod. On day 14 of the experiment the photoperiod was then reduced to natural day length for all treatments. Feed was made available ad libitum for all groups except the forced molt group. The forced molt group was deprived of food, but not of water, until a 30% body weight loss occurred (10 days of fasting). [D-[…] ]LHRH was used as the LHRH receptor ligand for the chemical molt groups. The "chemical molt-injected" group received intramuscular (breast) injections of 25 micrograms/day of [D-[…] ]LHRH for 10 consecutive days beginning on day 14. Alternate pectoral (breast) areas were injected each day. The "chemical molt-microcapsule" groups received a single intramuscular (breast) injection of microencapsulated [D-[…] ]LHRH on day zero. This preparation of microcapsules provided a controlled release of 25 micrograms [D-[…] ]LHRH per day for 15 consecutive days. For all treatments, body weights were measured at day zero and every three days thereafter, until the forced molt group achieved a 30% weight loss. Serum samples were periodically collected from 10 hens randomly selected from each group, and saved for future analysis. The same 10 hens from each group were bled at each collection. On day 14, the microcapsule injected groups received intramuscular injections of lactide/glycolide copolymer microcapsules which had [D-[…] ]LHRH incorporated therein. The ligand-containing microcapsules administered the "Microcapsules A" group were prepared and supplied by Debiopharm (Lausanne, Switzerland). These microcapsules were prepared by a phase-separation process to produce a free-flowing powder of spherical particles consisting of [D-[…] ]LHRH (2% wt/wt) distributed within a polymeric matrix of 53:47(mol %) poly(DL-lactide-co-glycolide) (98% wt/wt) with an inherent viscosity of 0.7 dl/g. The microcapsules were 50 micrometers or less in diameter. […] Photomicrographs of similar microcapsules are presented in T. W. Redding, et al., Proc. Natl. Acad. Sci. […]. 1984). Microcapsules were suspended in disposable syringes in vehicle containing 2% carboxymethyl cellulose and 1% "TWEEN 20" in water. After thoroughly mixing the suspension, aliquots calculated to have released a dose of 25 micrograms/day for 15 consecutive days were injected into the breast muscle of the hens. We weighed the microcapsules directly into disposable 3 ml syringes. The plunger of a plugged syringe containing microcapsules (without vehicle) was pulled back to the 1.5-2 cc mark. The hub of the syringe was then placed against a vortex mixer and the syringe vortexed rapidly for about 20 seconds, or until most of the clumps of microbeads were broken and distributed along the barrel of the syringe. […]

[3] = system: single combed White Leghorn hens; test: Mortality; format: in vivo
Description: as §1, §2
On day 14, the microcapsule injected groups received intramuscular injections of lactide/glycolide copolymer microcapsules which had [D-Trp^6 ]LHRH incorporated therein. The ligand-containing microcapsules administered the "Microcapsules A" group were prepared and supplied by Debiopharm (Lausanne, Switzerland). […]

[4] = hens killed immediately after the molt, Day 23

[D-Trp^6 ]LHRH [D-Trp^6 --LHRH]
involution of reproductive tract ([1]; both treated groups): exhibited involution of their reproductive tracts
Ovary Wt. [1, 4]: 10.38 g
Oviduct Wt. [1, 4]: 17.65 g
Abdominal Adipose Tissue Wt. ([1]; in vivo): 55.73 g
Body Wt. ([1]; in vivo): 1.784 kg
MEAN BODY WEIGHT ([2]; Day 5, before treatment): 1.669 kg
MEAN BODY WEIGHT ([2]; Day 12, before treatment (treatment started day 13/14)): 1.722 kg
MEAN BODY WEIGHT ([2]; Day 17, 25 micrograms/day i.m.): 1.765 kg
MEAN BODY WEIGHT ([2]; Day 22, 25 micrograms/day i.m.): 1.704 kg
MEAN BODY WEIGHT ([2]; Day 27): 1.637 kg
MEAN BODY WEIGHT ([2]; Day 33): 1.654 kg
MEAN BODY WEIGHT ([2]; Day 40): 1.747 kg
MEAN BODY WEIGHT ([2]; Day 47): 1.760 kg
MEAN BODY WEIGHT ([2]; Day 54): 1.761 kg
MEAN BODY WEIGHT ([2]; Day 61): 1.802 kg
MEAN BODY WEIGHT ([2]; Day 75): 1.838 kg
MEAN BODY WEIGHT ([2]; Day Zero, before treatment): 1.720 kg
MORTALITY: Number of Hens That Died ([3]; Evaluated from day 28 to day 94): 0
mortality in words ([3]; groups that received the ligand): no mortality occurred
